# Laboratory results reported in PubChem BioAssay (NCI).
#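 Interpolation was linear, between the two tested concentrations surrounding the appropriate level; five concentrations were tested over 48 hours in 96-well plates. TGI: concentration producing complete growth inhibition.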
# Experiments:
# Assay in all cases: NCI-60 cell line screen, 48 h
# [1] = test system: HS 578T breast
# [2] = test system: HT29 colon
# [3] = test system: HCC-2998 colon
# [4] = test system: NCI-H23 lung
# [5] = test system: CCRF-CEM leukemia
# [6] = test system: SK-MEL-5 melanoma
# [7] = test system: MDA-N
# [8] = test system: NCI/ADR-RES ovarian
# [9] = test system: K-562 leukemia
# [10] = test system: UACC-257 melanoma
# [11] = test system: MALME-3M melanoma
# [12] = test system: UACC-62 melanoma
# [13] = test system: SF-268 CNS
# [14] = test system: NCI-H522 lung
# [15] = test system: SK-MEL-28 melanoma
# [16] = test system: MCF7 breast
# [17] = test system: SF-295 CNS
# [18] = test system: RXF 393 renal
# [19] = test system: DU-145 prostate
# [20] = test system: IGROV1 ovarian
# [21] = test system: PC-3 prostate
# [22] = test system: SNB-75 CNS
# [23] = test system: SF-539 CNS
# [24] = test system: A549 NSCLC
# [25] = test system: A498 renal
# [26] = test system: NCI-H460 lung
# [27] = test system: TK-10 renal
# [28] = test system: M14 melanoma
# [29] = test system: EKVX NSCLC
# [30] = test system: OVCAR-3 ovarian
# [31] = test system: HCT-116 colon
# [32] = test system: SR leukemia
# [33] = test system: MDA-MB-231 breast
# [34] = test system: SW-620 colon
# [35] = test system: U251 CNS
# [36] = test system: NCI-H226 lung
# [37] = test system: T-47D breast
# [38] = test system: COLO 205 colon
# [39] = test system: HOP-92 NSCLC
# [40] = test system: OVCAR-8 ovarian
# [41] = test system: SK-OV-3 ovarian
# [42] = test system: SNB-19 CNS
# [43] = test system: HL-60(TB) leukemia
# [44] = test system: MOLT-4 leukemia
# [45] = test system: BT-549 breast
# [46] = test system: CAKI-1 renal
# [47] = test system: ACHN renal
# [48] = test system: RPMI-8226 leukemia
# [49] = test system: HCT-15 colon
# [50] = test system: LOX IMVI melanoma
# [51] = test system: OVCAR-5 ovarian
# [52] = test system: MDA-MB-435
# [53] = test system: HOP-62 NSCLC
# [54] = test system: UO-31 renal
# [55] = test system: SK-MEL-2 melanoma
# [56] = test system: 786-0 renal
# [57] = test system: SN12C renal
# [58] = test system: OVCAR-4 ovarian
# [59] = test system: KM12 colon
# [60] = test system: KM20L2 colon
# [61] = test system: M19-MEL melanoma
# [62] = test system: DMS 273 small cell lung
# [63] = test system: LXFL 529 NSCLC
structure (smiles),measurement,setting,value
O=C(c1ccccc1)C(Nc1ccc2ccccc2c1)c1ccccc1 (centres undefined),TGI,[1],> 100 µM
same,TGI,[2],> 100 µM
same,TGI,[3],56.6 µM
same,TGI,[4],> 100 µM
same,TGI,[5],51.2 µM
same,TGI,[6],36 µM
same,TGI,[7],> 100 µM
same,TGI,[8],> 100 µM
same,TGI,[9],> 87.6 µM
same,TGI,[10],48.2 µM
same,TGI,[11],> 94.8 µM
same,TGI,[12],> 100 µM
same,TGI,[13],> 100 µM
same,TGI,[14],> 67.3 µM
same,TGI,[15],> 100 µM
same,TGI,[16],> 100 µM
same,TGI,[17],> 100 µM
same,TGI,[18],> 100 µM
same,TGI,[19],> 100 µM
same,TGI,[20],> 100 µM
same,TGI,[21],98.7 µM
same,TGI,[22],> 71.9 µM
same,TGI,[23],> 100 µM
same,TGI,[24],> 100 µM
same,TGI,[25],69.6 µM
same,TGI,[26],> 100 µM
same,TGI,[27],> 100 µM
same,TGI,[28],> 100 µM
same,TGI,[29],> 100 µM
same,TGI,[30],78.2 µM
same,TGI,[31],> 100 µM
same,TGI,[32],> 71.8 µM
same,TGI,[33],> 100 µM
same,TGI,[34],> 100 µM
same,TGI,[35],> 100 µM
same,TGI,[36],> 100 µM
same,TGI,[37],> 100 µM
same,TGI,[38],33.7 µM
same,TGI,[39],> 100 µM
same,TGI,[40],> 100 µM
same,TGI,[41],> 100 µM
same,TGI,[42],> 100 µM
same,TGI,[43],36.4 µM
same,TGI,[44],> 75.6 µM
same,TGI,[45],> 100 µM
same,TGI,[46],> 100 µM
same,TGI,[47],> 100 µM
same,TGI,[48],33.7 µM
same,TGI,[49],> 100 µM
same,TGI,[50],> 100 µM
same,TGI,[51],> 100 µM
same,TGI,[52],> 48 µM
same,TGI,[53],> 100 µM
same,TGI,[54],> 100 µM
same,TGI,[55],41.8 µM
same,TGI,[56],> 100 µM
same,TGI,[57],> 100 µM
same,TGI,[58],> 100 µM
same,TGI,[59],> 81.5 µM
N#Cc1ccc(C(C2C(=O)NC(=O)NC2=O)C2C(=O)NC(=O)NC2=O)cc1,TGI,[60],> 100 µM
same,TGI,[61],> 100 µM
same,TGI,[2],> 100 µM
same,TGI,[3],> 100 µM
same,TGI,[4],> 100 µM
same,TGI,[5],> 100 µM
same,TGI,[6],> 100 µM
same,TGI,[9],> 100 µM
same,TGI,[10],> 100 µM
same,TGI,[11],> 100 µM
same,TGI,[12],> 100 µM
same,TGI,[13],> 100 µM
same,TGI,[14],> 100 µM
same,TGI,[15],> 100 µM
same,TGI,[17],> 100 µM
same,TGI,[20],> 100 µM
same,TGI,[23],> 100 µM
same,TGI,[24],> 100 µM
same,TGI,[26],> 100 µM
same,TGI,[27],> 100 µM
same,TGI,[28],> 100 µM
same,TGI,[62],> 100 µM
same,TGI,[29],> 100 µM
same,TGI,[30],> 100 µM
same,TGI,[31],> 100 µM
same,TGI,[32],> 100 µM
same,TGI,[34],> 100 µM
same,TGI,[35],> 100 µM
same,TGI,[36],> 100 µM
same,TGI,[63],> 100 µM
same,TGI,[38],> 100 µM
same,TGI,[39],> 100 µM
same,TGI,[40],> 100 µM
same,TGI,[41],> 100 µM
same,TGI,[42],> 100 µM
same,TGI,[43],> 100 µM
same,TGI,[44],> 100 µM
same,TGI,[46],> 100 µM
same,TGI,[47],> 100 µM
same,TGI,[48],> 100 µM
same,TGI,[49],> 100 µM
same,TGI,[50],> 100 µM
same,TGI,[51],> 100 µM
same,TGI,[53],> 100 µM
same,TGI,[54],> 100 µM
same,TGI,[55],> 100 µM
same,TGI,[56],> 100 µM
same,TGI,[57],> 100 µM
same,TGI,[58],> 100 µM
same,TGI,[59],> 100 µM
